Data: ChEMBL document CHEMBL3243997, “(Acylaryloxy)acetic acid diuretics. 2. (2-Alkyl-2-aryl-1-oxo-5-indanyloxy)acetic acids” (1978)

What was measured:
[1] = tested on: Rattus norvegicus; experiment: Natriuretic activity in rat assessed as per cage at 3 mg/kg, po; type: functional
[2] = tested on: Rattus norvegicus; experiment: Natriuretic activity in rat assessed as per cage at 9 mg/kg, po; type: functional
[3] = tested on: Rattus norvegicus; experiment: Natriuretic activity in rat assessed as per cage at 27 mg/kg, po; type: functional
[4] = tested on: Rattus norvegicus; experiment: Natriuretic activity in rat assessed as per cage at 81 mg/kg, po; type: functional
[5] = tested on: Pan troglodytes; experiment: Natriuretic activity in chimpanzee assessed as per min at 5 mg/kg, po; type: functional
[6] = tested on: Pan troglodytes; experiment: Natriuretic activity in chimpanzee assessed as change in Curate to Cinsulin ratio at 5 mg/kg, po; type: functional
[7] = tested on: Canis familiaris; experiment: Diuretic activity in dog assessed as sodium level in urine per min at 5 mg/kg, iv relative to control; type: functional, Canis lupus familiaris
[8] = tested on: Canis familiaris; experiment: Diuretic activity in dog assessed as chloride level in urine per min at 5 mg/kg, iv relative to control; type: functional, Canis lupus familiaris
[9] = tested on: Canis familiaris; experiment: Diuretic activity in dog assessed as […] urine volume at 5 mg/kg, iv relative to control; type: functional, Canis lupus familiaris
[10] = tested on: Canis familiaris; experiment: Diuretic activity in dog assessed as potassium level in urine per min at 1 mg/kg, iv relative to control; type: functional, Canis lupus familiaris
[11] = tested on: Canis familiaris; experiment: Diuretic activity in dog assessed as chloride level in urine per min at 1 mg/kg, iv relative to control; type: functional, Canis lupus familiaris
[12] = tested on: Canis familiaris; experiment: Diuretic activity in dog assessed as […] urine volume at 1 mg/kg, iv relative to control; type: functional, Canis lupus familiaris
[13] = tested on: Canis familiaris; experiment: Diuretic activity in dog assessed as sodium level in urine per min at 1 mg/kg, iv relative to control; type: functional, Canis lupus familiaris

Work on CC1(c2ccccc2)Cc2cc(OCC(=O)O)c(Cl)c(Cl)c2C1=O (single isomer, unassigned; (-)) [INDACRINONE] yielded an Activity ([1]; 3 mg/kg) of 1.01 mEq, an Activity ([2]; 9 mg/kg) of 1.21 mEq and an Activity ([3]; 27 mg/kg) of 1.79 mEq. It also gave an Activity ([4]; 81 mg/kg) of 2.71 mEq, an Activity ([5]; 5 mg/kg) of 743 uEq and a Ratio ([6]; 5 mg/kg) of 0.28. It also gave an Activity ([7]; 5 mg/kg) of 314 µEq/min and an Activity ([8]; 5 mg/kg) of 360 µEq/min.

Work on CCC1(c2ccccc2)Cc2cc(OCC(=O)O)c(Cl)c(Cl)c2C1=O (configuration not stated) yielded an Activity [9] of 4 mL, an Activity [1] of 0.75 mEq and an Activity [2] of 1.15 mEq. It also gave an Activity [3] of 1.19 mEq, an Activity [4] of 1.34 mEq and an Activity [5] of 369 uEq. For the same compound, the Ratio [6] was 0.12, the Activity [7] was 431 µEq/min and the Activity [8] was 396 µEq/min.

CCCN(CCC)S(=O)(=O)c1ccc(C(=O)O)cc1 [PROBENECID] was tested, and the Ratio [6] was 0.05.

With CC1(c2ccc(F)cc2)Cc2cc(OCC(=O)O)c(Cl)c(Cl)c2C1=O (configuration not stated) the Activity [9] was 3 mL, the Activity [1] was 1.01 mEq and the Activity [2] was 0.86 mEq. For the same compound, the Activity [3] was 1.23 mEq, the Activity [4] was 1.73 mEq and the Activity [5] was 310 uEq. For the same compound, the Ratio [6] was 0.43, the Activity [7] was 352 µEq/min and the Activity [8] was 362 µEq/min.

Work on CC(=O)c1ccc(C2(C)Cc3cc(OCC(=O)O)c(Cl)c(Cl)c3C2=O)cc1 (configuration not stated) yielded an Activity [1] of 0.49 mEq, an Activity [2] of 0.62 mEq and an Activity [3] of 0.81 mEq. It also gave an Activity [4] of 1.63 mEq, an Activity [5] of 608 uEq and a Ratio [6] of 0.08.

Compound CC1(c2ccc(Cl)cc2)Cc2cc(OCC(=O)O)c(Cl)c(Cl)c2C1=O (configuration not stated) has an Activity [9] of 6 mL, an Activity [1] of 0.21 mEq and an Activity [2] of 0.3 mEq. The Activity [3] was 0.25 mEq, the Activity [4] was 0.37 mEq and the Activity [5] was 302 uEq. The Ratio [6] was 0.25, the Activity [7] was 305 µEq/min and the Activity [8] was 282 µEq/min.

For CC1(c2ccccc2)Cc2cc(OCC(=O)O)c(Cl)c(Cl)c2C1=O (single isomer, unassigned; (+)) [INDACRINONE], the Activity ([9]; 5 mg/kg) was 4 mL, the Activity ([1]; 3 mg/kg) was 0.77 mEq and the Activity ([2]; 9 mg/kg) was 0.38 mEq. It also gave an Activity ([3]; 27 mg/kg) of 0.71 mEq, an Activity ([4]; 81 mg/kg) of 0.88 mEq and an Activity ([5]; 5 mg/kg) of 221 uEq. It also gave a Ratio ([6]; 5 mg/kg) of 0.16, an Activity ([7]; 5 mg/kg) of 221 µEq/min and an Activity ([8]; 5 mg/kg) of 304 µEq/min.

For O=C(O)COc1cc2c(c(Cl)c1Cl)C(=O)C(c1ccccc1)(c1ccccc1)C2, the Activity [9] was 2 mL, the Activity [1] was 0.4 mEq and the Activity [2] was 0.93 mEq. For the same compound, the Activity [3] was 1.09 mEq, the Activity [4] was 0.95 mEq and the Activity [5] was 19 uEq. The Ratio [6] was 0.03, the Activity [7] was 44 µEq/min and the Activity [8] was 5 µEq/min.

CC1(c2ccc(O)cc2)Cc2cc(OCC(=O)O)c(Cl)c(Cl)c2C1=O (configuration not stated) was tested, and the Activity [9] was 10 mL, the Activity [1] was 0.17 mEq and the Activity [2] was 0.33 mEq. The Activity [3] was 0.35 mEq, the Activity [5] was 151 uEq and the Ratio [6] was 0.02. It also gave an Activity [7] of 1260 µEq/min and an Activity [8] of 1460 µEq/min.

In the case of CC1(c2ccc(CN)cc2)Cc2cc(OCC(=O)[O-])c(Cl)c(Cl)c2C1=O.[Na+] (configuration not stated), the Activity [9] is reported as 5 mL, the Activity [1] is reported as 0.18 mEq and the Activity [2] is reported as 0.17 mEq. The Activity [3] was 0.27 mEq, the Activity [4] was 0.19 mEq and the Activity [5] was 135 uEq. It also gave a Ratio [6] of 0, an Activity [7] of 497 µEq/min and an Activity [8] of 424 µEq/min.

In the case of O=C(O)COc1cc2c(c(Cl)c1Cl)C(=O)C1(c3ccccc3)CCCCC21 (configuration not stated), the Activity [9] is reported as 4 mL, the Activity [1] is reported as 0.47 mEq and the Activity [2] is reported as 0.65 mEq. It also gave an Activity [3] of 0.86 mEq, an Activity [4] of 1.17 mEq and an Activity [5] of 137 uEq. For the same compound, the Ratio [6] was 0.08, the Activity [7] was 276 µEq/min and the Activity [8] was 211 µEq/min.

With COc1ccc(C2(C)Cc3cc(OCC(=O)O)c(Cl)c(Cl)c3C2=O)cc1 (configuration not stated) the Activity [1] was 0.45 mEq, the Activity [2] was 0.76 mEq and the Activity [3] was 1.29 mEq. It also gave an Activity [5] of 459 uEq and a Ratio [6] of 0.01.

NS(=O)(=O)c1cc(C(=O)O)c(NCc2ccco2)cc1Cl [FUROSEMIDE] gave an Activity [10] of 141 milliequivalent, an Activity [11] of 1080 µEq/min and an Activity [12] of 3 mL. It also gave an Activity [2] of 0.07 mEq, an Activity [3] of 1.25 mEq and an Activity [4] of 2.44 mEq. For the same compound, the Activity [13] was 960 milliequivalent, the Activity [5] was 1035 uEq and the Ratio [6] was -0.02.

O=C(O)COc1cc2c(c(Cl)c1Cl)C(=O)C(c1ccccc1)(C1CCCC1)C2 (configuration not stated) showed an Activity [9] of 0.8 mL, an Activity [1] of 0.79 mEq and an Activity [2] of 0.4 mEq. The Activity [3] was 0.31 mEq, the Activity [4] was 0.35 mEq and the Activity [5] was 47 uEq. It also gave a Ratio [6] of 0, an Activity [7] of 11 µEq/min and an Activity [8] of 0.9 µEq/min.

In the case of NS(=O)(=O)c1cc2c(cc1Cl)NCNS2(=O)=O [HYDROCHLOROTHIAZIDE], the Activity [9] is reported as 3 mL, the Activity [2] is reported as 1.12 mEq and the Activity [5] is reported as 144 uEq. For the same compound, the Activity [7] was 166 µEq/min and the Activity [8] was 156 µEq/min.

Work on CC1(c2ccccc2)Cc2cc(OCC(=O)O)c(Cl)c(Cl)c2C1=O (racemic) [INDACRINONE] yielded an Activity ([9]; 5 mg/kg) of 8 mL, an Activity ([1]; 3 mg/kg) of 0.86 mEq and an Activity ([2]; 9 mg/kg) of 0.97 mEq. For the same compound, the Activity ([3]; 27 mg/kg) was 1.29 mEq, the Activity ([4]; 81 mg/kg) was 1.89 mEq and the Activity ([5]; 5 mg/kg) was 409 uEq. For the same compound, the Ratio ([6]; 5 mg/kg) was 0.38, the Activity ([7]; 5 mg/kg) was 920 µEq/min and the Activity ([8]; 5 mg/kg) was 1010 µEq/min.

For CC1(c2ccc(Br)cc2)Cc2cc(OCC(=O)O)c(Cl)c(Cl)c2C1=O (configuration not stated), the Activity [9] was 3 mL, the Activity [1] was 0.21 mEq and the Activity [2] was 0.29 mEq. The Activity [3] was 0.27 mEq, the Activity [4] was 0.42 mEq and the Activity [5] was 27 uEq. It also gave a Ratio [6] of 0.01, an Activity [7] of 96 µEq/min and an Activity [8] of 34 µEq/min.

Compound CC1(c2ccc(S(N)(=O)=O)cc2)Cc2cc(OCC(=O)O)c(Cl)c(Cl)c2C1=O (configuration not stated) has an Activity [1] of 0.32 mEq, an Activity [2] of 0.29 mEq and an Activity [3] of 0.86 mEq. It also gave an Activity [5] of 674 uEq and a Ratio [6] of 0.

With Cc1c(OCC(=O)O)cc2c(c1Cl)C(=O)C(C)(c1ccccc1)C2 (configuration not stated) the Activity [9] was 4 mL, the Activity [1] was 1.35 mEq and the Activity [2] was 1.16 mEq. It also gave an Activity [3] of 1.38 mEq, an Activity [4] of 1.62 mEq and an Activity [5] of 479 uEq. For the same compound, the Ratio [6] was 0.31, the Activity [7] was 226 µEq/min and the Activity [8] was 262 µEq/min.

With CC1(c2ccccc2)Cc2cc(OCc3nnn[nH]3)c(Cl)c(Cl)c2C1=O (configuration not stated) the Activity [9] was 3 mL, the Activity [1] was 0.28 mEq and the Activity [2] was 0.17 mEq. It also gave an Activity [3] of 0.2 mEq, an Activity [4] of 0.4 mEq and an Activity [5] of 44 uEq. For the same compound, the Ratio [6] was 0.09, the Activity [7] was 279 µEq/min and the Activity [8] was 245 µEq/min.

In the case of CC1(c2cccs2)Cc2cc(OCC(=O)O)c(Cl)c(Cl)c2C1=O (configuration not stated), the Activity [9] is reported as 5 mL, the Activity [1] is reported as 0.46 mEq and the Activity [2] is reported as 0.79 mEq. The Activity [3] was 1.41 mEq, the Activity [4] was 1.77 mEq and the Activity [5] was 416 uEq. For the same compound, the Ratio [6] was 0.47, the Activity [7] was 503 µEq/min and the Activity [8] was 598 µEq/min.

With CC1(c2ccc(N)cc2)Cc2cc(OCC(=O)O)c(Cl)c(Cl)c2C1=O (configuration not stated) the Activity [9] was 10 mL, the Activity [1] was 0.33 mEq and the Activity [2] was 0.53 mEq. The Activity [3] was 0.98 mEq, the Activity [4] was 1.34 mEq and the Activity [5] was 244 uEq. For the same compound, the Ratio [6] was 0.1, the Activity [7] was 1130 µEq/min and the Activity [8] was 1180 µEq/min.

Work on CC1(c2ccc([N+](=O)[O-])cc2)Cc2cc(OCC(=O)O)c(Cl)c(Cl)c2C1=O (configuration not stated) yielded an Activity [9] of 8 mL, an Activity [1] of 0.89 mEq and an Activity [2] of 1.02 mEq. The Activity [3] was 1.68 mEq, the Activity [4] was 1.98 mEq and the Activity [5] was 176 uEq. For the same compound, the Ratio [6] was 0.03, the Activity [7] was 751 µEq/min and the Activity [8] was 810 µEq/min.
